Results published in article PMC2901217, “Flavonoids activate pregnane × receptor-mediated CYP3A4 gene expression by inhibiting cyclin-dependent kinases in HepG2 liver carcinoma cells” (BMC Biochemistry, 2010).
Values belong to the compound of their own block, whether it stands above or below them.

How the values were obtained:
Cdk7 = Cdk7 (Homo sapiens, UniProt P50613); test: Cdk kinase profiling assay (Ambit Biosciences); type: binding
Description: (§1) Since flavonoids have been reported to inhibit multiple Cdks, we investigated the inhibitory effect of flavonoid apigenin on various Cdks. Apigenin inhibited multiple Cdks, including Cdk2, 4, 5, 7, 8, 9 and 11 (Table 1). […] GST was expressed and purified by using pGEX-4T-1 in Escherichia coli BL21 and was used as the negative control. The reaction mixture was incubated at 30°C for 30 min before being electrophoresed by SDS-PAGE. The gel was stained by using SimplyBlue SafeStain (Invitrogen), desiccated by the Labconco gel dryer (Labconco, Kansas City, MO), and exposed overnight to the Storage Phosphor Screen (GE Healthcare). Phosphoimages were obtained by using the Storm scanner (GE Healthcare). In vitro Cdks kinase profiling assays were performed by Ambit Biosciences (San Diego, CA) as previously described.

Cdk2 = Cdk2 (Homo sapiens, UniProt P24941); test: Cdk kinase profiling assay (Ambit Biosciences); type: binding
Description: as §1

Cdk8 = Cdk8 (Homo sapiens, UniProt P49336); test: Cdk kinase profiling assay (Ambit Biosciences); type: binding
Cdk8, sequence (P49336 whole entry): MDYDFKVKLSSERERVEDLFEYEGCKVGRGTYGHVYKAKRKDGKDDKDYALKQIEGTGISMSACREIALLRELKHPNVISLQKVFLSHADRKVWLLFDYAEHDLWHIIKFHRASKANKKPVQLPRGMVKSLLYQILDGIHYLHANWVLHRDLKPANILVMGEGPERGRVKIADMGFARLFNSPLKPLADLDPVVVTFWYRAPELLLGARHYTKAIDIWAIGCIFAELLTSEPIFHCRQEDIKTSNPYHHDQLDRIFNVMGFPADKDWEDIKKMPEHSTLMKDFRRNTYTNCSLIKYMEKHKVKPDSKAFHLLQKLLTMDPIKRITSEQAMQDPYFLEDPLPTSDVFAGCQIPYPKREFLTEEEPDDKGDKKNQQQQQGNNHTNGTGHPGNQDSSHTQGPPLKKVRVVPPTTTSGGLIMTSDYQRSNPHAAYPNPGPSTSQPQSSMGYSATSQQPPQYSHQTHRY
Description: as §1

Cdk4 = Cdk4 (Homo sapiens, UniProt P11802); test: Cdk kinase profiling assay (Ambit Biosciences); type: binding
Cdk4, sequence (P11802 whole entry): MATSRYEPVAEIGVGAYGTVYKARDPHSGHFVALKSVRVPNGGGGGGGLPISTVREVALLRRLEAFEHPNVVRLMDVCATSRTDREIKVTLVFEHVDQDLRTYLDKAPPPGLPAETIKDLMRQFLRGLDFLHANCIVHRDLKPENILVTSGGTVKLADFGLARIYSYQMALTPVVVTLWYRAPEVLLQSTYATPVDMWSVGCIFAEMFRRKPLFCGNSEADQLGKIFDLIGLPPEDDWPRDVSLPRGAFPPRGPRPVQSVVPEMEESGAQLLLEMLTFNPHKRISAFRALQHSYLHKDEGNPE
Description: as §1

Cdk5 = Cdk5 (Homo sapiens, UniProt Q00535); test: Cdk kinase profiling assay (Ambit Biosciences); type: binding
Cdk5, sequence (Q00535 whole entry): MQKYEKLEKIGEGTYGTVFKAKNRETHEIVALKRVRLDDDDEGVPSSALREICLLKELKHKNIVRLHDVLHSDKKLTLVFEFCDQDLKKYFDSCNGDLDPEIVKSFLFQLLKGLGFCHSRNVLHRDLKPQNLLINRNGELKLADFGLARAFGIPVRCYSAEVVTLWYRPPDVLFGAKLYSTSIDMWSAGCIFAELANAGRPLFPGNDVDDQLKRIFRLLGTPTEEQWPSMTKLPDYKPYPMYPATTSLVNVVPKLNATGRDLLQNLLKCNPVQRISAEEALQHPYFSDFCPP
Description: as §1

Cdk9 = Cdk9 (Homo sapiens, UniProt P50750); test: Cdk kinase profiling assay (Ambit Biosciences); type: binding
Cdk9, sequence (P50750 whole entry): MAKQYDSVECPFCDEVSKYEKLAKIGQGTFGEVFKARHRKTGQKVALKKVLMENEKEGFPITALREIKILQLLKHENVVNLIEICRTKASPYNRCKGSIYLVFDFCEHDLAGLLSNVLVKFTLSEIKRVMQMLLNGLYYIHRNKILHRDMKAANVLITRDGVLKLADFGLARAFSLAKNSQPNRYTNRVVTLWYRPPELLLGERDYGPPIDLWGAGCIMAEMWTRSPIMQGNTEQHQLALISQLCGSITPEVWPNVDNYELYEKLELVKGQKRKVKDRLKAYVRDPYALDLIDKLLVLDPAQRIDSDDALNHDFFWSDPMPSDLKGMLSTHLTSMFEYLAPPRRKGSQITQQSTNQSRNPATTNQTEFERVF
Description: as §1

Cdk3 = Cdk3 (Homo sapiens, UniProt Q00526); test: Cdk kinase profiling assay (Ambit Biosciences); type: binding
Cdk3, sequence (Q00526 whole entry): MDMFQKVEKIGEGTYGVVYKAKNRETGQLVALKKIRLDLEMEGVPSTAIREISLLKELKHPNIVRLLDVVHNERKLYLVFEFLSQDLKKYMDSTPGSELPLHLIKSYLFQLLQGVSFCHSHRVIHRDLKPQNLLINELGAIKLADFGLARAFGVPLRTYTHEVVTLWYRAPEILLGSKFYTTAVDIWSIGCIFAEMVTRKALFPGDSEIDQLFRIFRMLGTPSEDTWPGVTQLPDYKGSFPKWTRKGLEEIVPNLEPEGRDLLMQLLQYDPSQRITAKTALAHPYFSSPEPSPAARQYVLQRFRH
Description: as §1

Cdk11 = Cdk11 (Homo sapiens, UniProt Q9BWU1); test: Cdk kinase profiling assay (Ambit Biosciences); type: binding
Cdk11, sequence (Q9BWU1 whole entry): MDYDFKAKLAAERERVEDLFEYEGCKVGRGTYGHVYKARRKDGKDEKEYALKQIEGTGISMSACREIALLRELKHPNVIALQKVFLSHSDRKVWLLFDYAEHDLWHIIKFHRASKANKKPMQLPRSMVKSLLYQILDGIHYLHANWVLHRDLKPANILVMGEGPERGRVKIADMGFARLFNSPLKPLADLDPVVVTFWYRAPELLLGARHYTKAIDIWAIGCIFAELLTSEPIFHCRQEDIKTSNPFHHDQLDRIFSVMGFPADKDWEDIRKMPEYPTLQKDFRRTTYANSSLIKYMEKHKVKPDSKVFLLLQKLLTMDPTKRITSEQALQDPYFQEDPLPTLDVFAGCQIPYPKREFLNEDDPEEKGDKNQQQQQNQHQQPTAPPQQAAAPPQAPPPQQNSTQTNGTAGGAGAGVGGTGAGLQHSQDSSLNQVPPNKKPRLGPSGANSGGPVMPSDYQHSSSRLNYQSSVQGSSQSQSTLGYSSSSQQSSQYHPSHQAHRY
Description: as §1

[1] = tested on: PXR-mediated CYP3A4 promoter activity in HepG2 cells stably transfected with PXR and CYP3A4-luc; test: PXR transactivation assay (CYP3A4-luc luciferase reporter); details: 24 h; for PXR activation as % of the activity from 2 μM of rifampicin: compound below 10 μM; for Activation of PXR-mediated CYP3A4 promoter (result in words): screen hit in HepG2 PXR/CYP3A4-luc cells
Description: HepG2 cells (2 × 10^4/well) stably transfected with PXR and CYP3A4-luc were seeded in 384-well plates and treated with indicated compounds for 24 h before the luciferase assay. […] Compounds were tested in quadruplicate. The bars denote the standard deviation.
Compounds were added to 384-well plates seeded with cells in a phenol red-free medium containing 5% charcoal/dextran-treated FBS and incubated for 24 h at 37°C before conducting the luciferase assay. The final concentration of DMSO in each well was maintained at 0.1%. DMSO and 2 μM of rifampicin were used as the negative and positive control, respectively. Luciferase activities were detected by using EnVision plate reader (PerkinElmer Life Sciences), as previously reported.

[2] = tested on: Cdk5-mediated inhibition of PXR-mediated CYP3A4 promoter activity in HepG2; test: Cdk5-mediated inhibition of rifampicin-induced CYP3A4 promoter activity (transient co-transfection, Dual-glo luciferase); type: cell-based, human; details: p < 0.001
Description: Next, we determined the functional correlation between the activities of Cdk5 and PXR. […] A total of 20 μg of combined plasmids was used to transfect 5 × 10^6 cells seeded in a T75 flask 16 h before transfection. Transfected cells were seeded into white 96-well plates (at 10,000 cells/well) 24 h later, and treated with DMSO or compounds as indicated for 24 h before Dual-glo luciferase assay. CYP3A4 promoter activity was normalized by using activity of the CMV-renilla, and expressed as fold induction over control (DMSO; without Cdk5 transfection). […] The significance of the difference between datasets was determined by using the Student's t test.

[3] = target: T1, GST-hPXR ligand-binding domain (Homo sapiens, UniProt O75469)
T1 sequence (O75469 146-433 limits assumed): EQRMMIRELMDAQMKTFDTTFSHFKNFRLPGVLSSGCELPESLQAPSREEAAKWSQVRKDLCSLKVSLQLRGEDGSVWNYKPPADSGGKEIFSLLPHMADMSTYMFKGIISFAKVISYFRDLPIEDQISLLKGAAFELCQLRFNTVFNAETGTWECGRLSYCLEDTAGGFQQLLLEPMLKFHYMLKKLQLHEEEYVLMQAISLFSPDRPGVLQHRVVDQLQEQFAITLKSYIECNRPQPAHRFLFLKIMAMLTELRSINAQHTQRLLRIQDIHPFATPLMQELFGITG
Description: The time-resolved fluorescence resonance transfer (TR-FRET) PXR competitive binding assay was performed as described previously [9]. Briefly, the assays were performed in a volume of 20 μl in 384-well solid black plates with 5 nM GST-hPXR ligand-binding domain, 40 nM fluorescent-labeled hPXR agonist (Fluomore PXR Green), 5 nM terbium-labeled anti-GST antibody, and test compound at different concentrations. […] Curves were generated by using GraphPad Prism 4.0 (GraphPad Software, La Jolla, CA).

Cdk7, sequence (P50613 whole entry): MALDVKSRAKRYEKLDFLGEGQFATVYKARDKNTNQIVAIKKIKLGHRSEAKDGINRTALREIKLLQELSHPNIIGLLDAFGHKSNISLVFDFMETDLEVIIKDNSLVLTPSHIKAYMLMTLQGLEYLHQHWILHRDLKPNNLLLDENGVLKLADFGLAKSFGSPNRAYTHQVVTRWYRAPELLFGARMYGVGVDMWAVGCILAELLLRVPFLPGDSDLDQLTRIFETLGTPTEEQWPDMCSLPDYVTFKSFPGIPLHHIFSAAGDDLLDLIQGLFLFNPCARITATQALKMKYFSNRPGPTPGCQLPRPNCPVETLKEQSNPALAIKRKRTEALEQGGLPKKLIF

Compound: COc1ccc(-c2coc3cc(O)cc(O)c3c2=O)cc1 [biochanin A]
Activation of PXR-mediated CYP3A4 promoter (result in words) [1]: potent activators

Compound: CCCC[C@@H](C=O)NC(=O)[C@H](CC(C)C)NC(=O)OCc1ccccc1 [calpeptin, reference compound]
Concentration as potent as 2 μM of rifampicin in inducing PXR activity ([1]; HepG2 PXR/CYP3A4-luc): 4.4 µM
Effect on inhibitory effect of Cdk5 on CYP3A4 promoter activity (result in words) [2]: decreased the inhibitory effect of Cdk5

Compound: O=c1c(-c2ccc(O)cc2)coc2cc(O)ccc12 [daidzein]
Activation of PXR-mediated CYP3A4 promoter (result in words) [1]: potent activators

Compound: COc1cc(O)c2c(=O)c(-c3ccc(O)cc3)coc2c1 [prunetin]
Activation of PXR-mediated CYP3A4 promoter (result in words) [1]: potent activators

More lines, now with the values ahead:

Kd (Cdk7): 1.7 µM
Kd (Cdk2): 9.8 µM
Kd (Cdk8): 5.8 µM
Kd (Cdk4): 7 µM
Kd (Cdk5): 3.9 µM
Kd (Cdk9): 2 µM
Kd (Cdk3): > 30 µM
Kd (Cdk11): 3 µM
PXR activation as % of the activity from 2 μM of rifampicin [1]: more than 50%
Activation of PXR-mediated CYP3A4 promoter (result in words) [1]: potent activators
Compound: O=c1cc(-c2ccc(O)cc2)oc2cc(O)cc(O)c12 [apigenin]

Activation of PXR-mediated CYP3A4 promoter (result in words) [1]: potent activators
Binding to PXR (result in words) [3]: did not bind
Compound: O=c1cc(-c2ccccc2)oc2cc(O)cc(O)c12 [chrysin]

Activation of PXR-mediated CYP3A4 promoter (result in words) [1]: potent activators
Compound: O=c1c(-c2ccc(O)cc2)coc2cc(O)cc(O)c12 [genistein]

PXR activation, times more effective than 2 μM rifampicin ([1]; compound at 40 μM, versus 2 μM rifampicin): 7 times
PXR activation as % of the activity from 2 μM of rifampicin [1]: more than 50%
Activation of PXR-mediated CYP3A4 promoter (result in words) [1]: potent activators
Compound: O=c1cc(-c2ccc(O)c(O)c2)oc2cc(O)cc(O)c12 [luteolin]
